Source: US7147866B2, “UV-absorbing lipid vesicles” (Galaxy Surfactants Limited, priority 2004, dated 2006)

Legend:
[1] = Vesicle formation and stability of aqueous dispersion; format: physicochemical
Source text: However, this short duration of stability of aqueous suspension is sufficient for conducting the photoprotection experiment.

[2] = Molar extinction coefficient (UV absorption) in methanol; format: physicochemical; conditions: at λmax 305 nm in methanol
[3] = tested on: hairless skin of inner side of forearm; test: Photoprotection on human forearm skin exposed to midday sun; melanin content and erythema levels by Mexameter-18; format: in vivo; conditions: liposomal vs non-vesicle aqueous suspension
Procedure: Liposomal dispersion composition (200 mg of 5.0% dispersion) of p-methoxy cinnamidopropyldimethylbehenyl ammonium tosylate and a cream preparation containing octyl methoxy cinnamate (200 mg of cream containing 5% OMC) are applied on hairless skin of inner side of forearm (36 cm^2). The forearms are exposed to midday sun for 15 minutes. The melanin content and erythema levels have been measured by Mexameter-18 (Courage+Khazakha, gmbh, Germany) before and after the exposure.

SMILES | Stability of dispersion in water ([1]; aqueous suspension) | Vesicle formation ([1]; lipid by itself in water) | Molar extinction coefficient, ε [2] | Photoprotection efficacy compared with p-methoxy cinnamidopropyl dimethyllauryl ammonium tosylate suspension [3]
CCCCCCCCCCCC[N+](C)(C)CCCNC(=O)C=Cc1ccc(OC)cc1.Cc1ccc(S(=O)(=O)[O-])cc1 [p-methoxy cinnamidopropyl dimethyllauryl ammonium tosylate] | unstable dispersion in water | does not form vesicles | – | –
CCCCCCCCCCCCCCCCCCCCCC[N+](C)(C)CCCNC(=O)c1ccc(N(C)C)cc1.Cc1ccc(S(=O)(=O)[O-])cc1 [p-N,N-dimethylamine benzamidopropyldimethylbehenyl ammonium tosylate] | – | – | 22,200 | –
CCCCCCCCCCCCCCCCCCCCCC[N+](C)(C)CCCNC(=O)C=Cc1ccc(OC)cc1.Cc1ccc(S(=O)(=O)[O-])cc1 [p-methoxy cinnamidopropyldimethylbehenyl ammonium tosylate] | – | – | 23,000 | much more superior in protecting skin
